Here are results for 16 compounds from US20050107447A1, “Novel lysophosphatidic acid receptor agonists and antagonists” (priority 2003, published 2005).

“Also recorded” adds a separate entry of the source.

One experiment deals with LPA2 (Homo sapiens, UniProt Q9HBW0). The experiment in a line: GTP[γ35S] binding, LPA2 transfected HEK293T cell membranes. Type of experiment: biochemical. Also noted: expressed in transfected cells; host or cells: HEK293T (transient, calcium phosphate). The following applies: for EC50: agonist, GTP[γ35S] binding. As to the method: (§1) The appropriate receptor plasmid DNA (encoding mouse LPA1, human LPA2 or human LPA3) was mixed with equal amounts of expression plasmids (pcDNA3) encoding a mutated (C351F) rat Gi2a, cow β1, and γ2 proteins and these DNAs were used to transfect monolayers of HEK293T cells (where ‘T’ indicates expression of the SV-40 virus large T antigen) using the calcium phosphate precipitate method. After about 60 hours, cells were harvested, membranes were prepared, aliquoted and stored at −70° C. until use.
(§2) The GTP[35 γS] assay was performed as described by us previously. Membranes containing 5 ug of protein were incubated in 0.1 ml GTP-binding buffer (in mM: HEPES 50, NaCl 100, MgCl2 10, pH7.5) containing […], […], 0.1 nM GTP[35 γS] (1200 Ci/mmol), and indicated lipid(s) for 30 minutes at 30° C. Samples were analyzed for membrane-bound radionuclide using a Brandel Cell Harvester (Gaithersburg, Md.).
(§3) The X-intercept of the linear transformation is equal to the inverse log of the κ1.
(§4) Membranes prepared from these cells are used to measure GTPγ[^35S] binding as a function of test compound concentration. The resulting dose-response curves provide relative potency (EC50) and efficacy, (Emax) for the test compounds.

The target in a further experiment is T1, LPA3 (Homo sapiens, UniProt Q9UBY5).
T1 sequence (Q9UBY5 1-353): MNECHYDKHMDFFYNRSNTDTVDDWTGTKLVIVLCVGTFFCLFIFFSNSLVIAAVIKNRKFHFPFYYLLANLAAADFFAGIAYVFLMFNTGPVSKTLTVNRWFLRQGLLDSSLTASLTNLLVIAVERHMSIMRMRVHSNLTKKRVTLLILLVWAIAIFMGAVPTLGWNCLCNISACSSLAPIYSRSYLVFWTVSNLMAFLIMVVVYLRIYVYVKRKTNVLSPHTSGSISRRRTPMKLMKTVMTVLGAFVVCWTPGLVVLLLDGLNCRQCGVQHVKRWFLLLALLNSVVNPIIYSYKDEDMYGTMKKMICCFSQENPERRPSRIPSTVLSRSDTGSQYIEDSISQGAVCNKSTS
The experiment is described as follows: GTP[γ35S] binding, LPA3 transfected HEK293T cell membranes. Type of experiment: biochemical. Also noted: expressed in transfected cells; host or cells: HEK293T (transient, calcium phosphate). The following applies: for EC50: agonist, GTP[γ35S] binding. As for the experimental part: as §1, §2, §3, §4
Background: GTPγS resists hydrolysis and so accumulates on activated G proteins.

A further experiment addresses LPA1 (Mus musculus, UniProt P61793). The experiment in a line: GTP[γ35S] binding, LPA1 transfected HEK293T (or RH7777) cell membranes. Type of experiment: biochemical. Also noted: expressed in transfected cells; host or cells: HEK293T (transient, with G protein plasmids); some results from RH7777 rat hepatoma membranes transfected with LPA1 DNA only. The following applies: for EC50: agonist, GTP[γ35S] binding; for Potency at LPA1 relative to LPA: vs 1-oleoyl LPA. As to the method: as §1, §2, §3, §4

Another experiment relates to LPA receptors. The experiment is described as follows: Whole cell assays of calcium mobilization or inhibition of cAMP accumulation (agonist activity). Type of experiment: cell-based. As for the experimental part:
Assays for cAMP accumulation were conducted on populations of 5×10^5 cells stimulated with […] in the presence of the phosphodiesterase inhibitor isomethylbutylxanthine (IBMX) for 15 minutes at 30° C. cAMP was measured by automated radioimmunoassay.
A FLIPR™ (Molecular Devices, Inc.) was used to measure intracellular calcium in A431 and HEK293T cells. A431 cells were seeded (−50,000 cells/well) in 96-well clear bottom black microplates (Corning Costar Corp., Cambridge, Mass.) and left overnight in CO2 incubator at 37° C. HEK293T cells were treated likewise, but seeded onto poly D-lysine coated microplates (Becton Dickinson, Franklin Lakes, N.J.). A431 cells were dye-loaded with 4 μM Fluo-3 AM ester (Molecular Probes Inc., Eugene, Oreg.) in a loading buffer (1×HBSS buffer, pH 7.4, containing 20 mM HEPES, 0.1% BSA, and 2.5 mM probenecid) for 1 hour at 37° C. Cells were then washed four times with the loading buffer and exposed in the FLIPR™ to sets of compounds. HEK293T cells were loaded with 2 μM Fluo-4 AM ester (Molecular Probes Inc., Eugene, Oreg.) in the same loading buffer without probenecid for 30 minutes and washed four times before being exposed to compounds in the FLIPR™. […]
The same activity was determined with human LPA1 using a recombinant baculovirus-infected insect Sf9 cell membrane preparation.
For orientation: Calcium assays in cells follow changes in intracellular calcium, usually with a dye or a luminescent sensor.

Sequence of LPA1 (P61793 whole entry): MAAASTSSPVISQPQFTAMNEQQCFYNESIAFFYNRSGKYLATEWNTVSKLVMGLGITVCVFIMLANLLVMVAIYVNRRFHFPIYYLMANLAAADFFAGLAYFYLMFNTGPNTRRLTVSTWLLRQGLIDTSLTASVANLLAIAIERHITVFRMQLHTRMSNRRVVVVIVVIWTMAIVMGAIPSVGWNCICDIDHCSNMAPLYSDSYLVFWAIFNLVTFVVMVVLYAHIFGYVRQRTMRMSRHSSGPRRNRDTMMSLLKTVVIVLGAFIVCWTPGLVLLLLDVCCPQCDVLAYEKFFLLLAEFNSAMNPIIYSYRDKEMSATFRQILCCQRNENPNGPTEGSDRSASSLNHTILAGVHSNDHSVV
Sequence of LPA2 (Q9HBW0 whole entry): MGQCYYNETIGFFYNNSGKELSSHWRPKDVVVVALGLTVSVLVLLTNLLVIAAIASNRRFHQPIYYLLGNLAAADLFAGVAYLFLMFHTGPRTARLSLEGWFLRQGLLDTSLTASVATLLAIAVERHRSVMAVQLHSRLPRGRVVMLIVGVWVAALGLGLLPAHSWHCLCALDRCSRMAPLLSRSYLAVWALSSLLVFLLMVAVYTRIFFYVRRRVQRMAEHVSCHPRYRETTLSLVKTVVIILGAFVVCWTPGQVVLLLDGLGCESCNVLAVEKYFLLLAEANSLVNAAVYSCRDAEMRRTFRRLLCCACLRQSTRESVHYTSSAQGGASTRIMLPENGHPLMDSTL

As for “1-acyl, 2-hydroxyl-sn-glycerol-3-phosphate [LPA, reference compound]”, the EC50 at LPA2 came to 6.8 nM; on LPA3, 262 nM. At LPA3 (LPA = 100), the “LPA3 Emax” value worked out at 100.

Take `CCCCCCCC/C=C\CCCCCCCC(=O)N[C@@H](CN)COP(=O)(O)O` [VPC12048]: the Emax at LPA2 worked out at 36.4%; at LPA3 it was 3.8%; on LPA1, 9.4%. Also, the EC50 at LPA2, on LPA3 and on LPA1 was over 5000 nM each time.

In the case of `CCCCCCCC/C=C\CCCCCCCC(=O)N[C@@H](COP(=O)(O)O)Cc1ccccc1` [VPC12084], in the experiment with LPA receptors, the “Agonist activity in whole cell assays” value is recorded as “appreciable agonist activity”. Also, on LPA2, the Emax came to 97% and the half-maximal effective concentration (EC50) came out at 268 nM. Moreover, on LPA3, the Emax is 78.7% and the 50% effective concentration (EC50) stood at 351 nM. Also, on LPA1, the “Antagonism of LPA-induced GTP[γ35S] binding at LPA1” value was “did block LPA activity”, the maximal effect (Emax) stood at 23.7% and a half-maximal response (EC50) required 38.4 nM.

In the case of `CCCCCCCC/C=C\CCCCCCCC(=O)N[C@H](C)COP(=O)(O)O` [VPC12086], at LPA2, the Emax was determined as 95.2% and the EC50 was determined as 18.3 nM. Further, at LPA3, the maximum response (Emax) came out at 93.4% and the EC50 was found to be 113 nM. For the same compound, on LPA1, the maximal effect (Emax) turned out to be 108%; the EC50 is 3.4 nM; the “Potency at LPA1 relative to LPA” value was “more potent than 1-oleoyl LPA; also recorded: more potent and efficacious than LPA”.

As to `CCCCCCCC/C=C\CCCCCCCC(=O)N[C@@H](COP(=O)(O)O)C(C)C` [VPC12098], the maximal effect (Emax) on LPA2 turned out to be 85.8%; at LPA3 it was 45.3%; on LPA1, 51%. Also, the EC50 at LPA2 turned out to be 799 nM; on LPA3 it was 3810 nM; at LPA1, 73.8 nM.

Consider `CCCCCCCC/C=C\CCCCCCCC(=O)N[C@@H](C)COP(=O)(O)O` [VPC12101], for which the Emax at LPA2 came out at 6.9%; at LPA3, 9.7%; at LPA1, 48.1%. In addition, the EC50 was over 5000 nM on LPA2, over 5000 nM on LPA3 and 2900 nM on LPA1.

In the case of `CCCCCCCC/C=C\CCCCCCCC(=O)N[C@H](CC)COP(=O)(O)O` [VPC12109], the maximal response (Emax) on LPA2 was determined as 92.6%; on LPA3 it was 83.5%; at LPA1, 66.8%. In addition, the EC50 at LPA2 was found to be 162 nM; on LPA3, 1080 nM; on LPA1, 35.8 nM.

Turning to `CCCCCCCC/C=C\CCCCCCCC(=O)N[C@@H](CC)COP(=O)(O)O` [VPC12115], the results for the maximal response (Emax) at LPA2, on LPA3 and at LPA1 were 85.6%, 89.3% and 62.3%, respectively. Moreover, the concentration giving a half-maximal response (EC50) at LPA2 was determined as 4280 nM; at LPA3, 4980 nM; on LPA1 it was 1580 nM.

Take `CCCCCCCC/C=C\CCCCCCCC(=O)N[C@H](CN)COP(=O)(O)O` [VPC12178]: on LPA2, the maximal response (Emax) is 103% and the EC50 came out at 50.3 nM. In addition, on LPA3, the Emax was 103% and the EC50 came out at 684 nM. Besides, on LPA1, the maximal response (Emax) came to 98.7%, the EC50 was determined as 4.9 nM and the “Potency at LPA1 relative to LPA” value is recorded as “more potent than 1-oleoyl LPA”.

For the compound `CCCCCCCC/C=C\CCCCCCCC(=O)N[C@H](COP(=O)(O)O)Cc1ccccc1` [VPC12255], the EC50 at LPA2, on LPA3 and at LPA1 was over 5000 nM in each case.

In the case of `CCCCCCCC/C=C\CCCCCCCC(=O)N[C@@H](COP(=O)(O)O)C(=O)OC` [VPC31139], the maximal response (Emax) on LPA2 stood at 91.3%; on LPA3, 84.4%; at LPA1, 66.2%. Also, the values for the EC50 at LPA2, at LPA3 and at LPA1 were 29.2 nM, 1480 nM and 18.5 nM, respectively.

As for `CCCCCCCC/C=C\CCCCCCCC(=O)N[C@H](CO)COP(=O)(O)O` [VPC31143], at LPA2, the Emax was determined as 105% and the 50% effective concentration (EC50) is 116 nM. For the same compound, at LPA3, the maximal effect (Emax) is 107% and the concentration giving a half-maximal response (EC50) was 322 nM. At LPA1, the Emax was 161%, a half-maximal response (EC50) required 7.9 nM and the “Potency at LPA1 relative to LPA” value is “more potent than 1-oleoyl LPA”.

As for `CCCCCCCC/C=C\CCCCCCCC(=O)N[C@@H](CO)COP(=O)(O)O` [VPC31144], the Emax on LPA2 was determined as 77.3%; at LPA1, 91.1%. The values for the EC50 at LPA2, on LPA3 and at LPA1 were 2640 nM, 4350 nM and over 5000 nM, respectively.

With `CCCCCCCC/C=C\CCCCCCCC(=O)N[C@@H](COP(=O)(O)O)Cc1ccc(OCc2ccc(CCCCC)cc2)cc1` [VPC31162], on LPA2, the “Antagonism of LPA-induced GTP[γ35S] binding at LPA2” value was “antagonist activity”. For the same compound, the “Agonist activity/efficacy at LPA3” value on LPA3 (compared to LPA) is on record as “agonist”. On LPA1 (compared to LPA), the “Agonist activity/efficacy at LPA1” value was “agonist”.

`CCCCCCCC/C=C\CCCCCCCC(=O)N[C@H](COP(=O)(O)O)C(=O)OC` [VPC31180]: the figures for the Emax at LPA2, at LPA3 and on LPA1 were 60.2%, 3.8% and 50.6%, respectively. For the same compound, the figures for the EC50 on LPA2, on LPA3 and at LPA1 were 3460 nM, over 5000 nM and 1210 nM, respectively.

`CCCCCCCC/C=C\CCCCCCCC(=O)N[C@H](COP(=O)(O)O)C(C)C` [compound 40105]: the maximal response (Emax) was found to be 27.6% on LPA2, 27.7% at LPA3 and 14.8% on LPA1. Also, the EC50 at LPA2, at LPA3 and on LPA1 was over 5000 nM in each case.

The term EC50 denotes the concentration at which the effect is half-maximal. The term Emax denotes the size of the effect at its maximum, as opposed to the concentration needed.
